# Species: Rattus norvegicus
# Test: DrugMatrix - Regimen: Daily Repeat
# Format: toxicity, organism-based, Sprague-Dawley
# Parameters: regimen Daily Repeat, gender Male, age 6-8 weeks
# Conditions: in vivo, po, route oral GAVAGE, […]; for ABSOLUTE BASOPHIL / ABSOLUTE EOSINOPHIL / ABSOLUTE LYMPHOCYTE / ABSOLUTE MONOCYTE / ABSOLUTE SEGMENTED NEUTROPHIL / BASOPHIL / EOSINOPHIL / ERYTHROCYTE COUNT / HEMATOCRIT / HEMOGLOBIN / LEUKOCYTE COUNT / LYMPHOCYTE / MEAN CORPUSCULAR HEMOGLOBIN / MEAN CORPUSCULAR HEMOGLOBIN CONCENTRATION / MEAN CORPUSCULAR VOLUME / MONOCYTE / NEUTROPHIL / NUCLEATED RED BLOOD CELLS / PLATELET COUNT: tissue Blood; for ALANINE AMINOTRANSFERASE / ALBUMIN / ALKALINE PHOSPHATASE / ASPARTATE AMINOTRANSFERASE / BLOOD UREA NITROGEN / CARBON DIOXIDE / CHLORIDE / CHOLESTEROL / CREATINE PHOSPHOKINASE / CREATININE / GLUCOSE / LACTATE DEHYDROGENASE / LIPASE / PHOSPHORUS / POTASSIUM / SODIUM / TOTAL BILIRUBIN / TOTAL PROTEIN / URIC ACID: tissue Plasma
# [1] = 0 mg/kg, 72 h, dose level Control, time 3 day
# [2] = 0 mg/kg, 120 h, dose level Control, time 5 day
# [3] = 100 mg/kg, 72 h, dose level Low, time 3 day
smiles,measurement,setting,value
CC(=O)Nc1cccc(O)c1 [METACETAMOL],ABSOLUTE BASOPHIL,[1],0 CELLS/uL
same,ABSOLUTE EOSINOPHIL,[1],0 CELLS/uL
same,ABSOLUTE LYMPHOCYTE,[1],14687.67 CELLS/uL
same,ABSOLUTE MONOCYTE,[1],164 CELLS/uL
same,ABSOLUTE SEGMENTED NEUTROPHIL,[1],1748.33 CELLS/uL
same,BASOPHIL,[1],0%
same,EOSINOPHIL,[1],0%
same,ERYTHROCYTE COUNT,[1],5.51 x10E6/uL
same,HEMATOCRIT,[1],33.68%
same,HEMOGLOBIN,[1],13.4 G/DL
same,LEUKOCYTE COUNT,[1],16.6 x10E3/uL
same,LYMPHOCYTE,[1],88.83%
same,MEAN CORPUSCULAR HEMOGLOBIN,[1],24.47 pg
same,MEAN CORPUSCULAR HEMOGLOBIN CONCENTRATION,[1],39.82 G/DL
same,MEAN CORPUSCULAR VOLUME,[1],61.23 fL
same,MONOCYTE,[1],0.83%
same,NEUTROPHIL,[1],10.33%
same,NUCLEATED RED BLOOD CELLS,[1],0 /100WBC
same,PLATELET COUNT,[1],1329.67 x10E3/uL
same,ALANINE AMINOTRANSFERASE,[1],61.33 u/L
same,ALBUMIN,[1],4.18 G/DL
same,ALKALINE PHOSPHATASE,[1],332.5 u/L
same,ASPARTATE AMINOTRANSFERASE,[1],98.33 u/L
same,BLOOD UREA NITROGEN,[1],15.83 mg/dL
same,CARBON DIOXIDE,[1],27.83 mmol/L
same,CHLORIDE,[1],100 MEQ/L
same,CHOLESTEROL,[1],76.17 mg/dL
same,CREATINE PHOSPHOKINASE,[1],729.17 u/L
same,CREATININE,[1],0.21 mg/dL
same,GLUCOSE,[1],151.83 mg/dL
same,LACTATE DEHYDROGENASE,[1],484.67 u/L
same,LIPASE,[1],10 u/L
same,PHOSPHORUS,[1],11.3 mg/dL
same,POTASSIUM,[1],6.1 MEQ/L
same,SODIUM,[1],142.9 MEQ/L
same,TOTAL BILIRUBIN,[1],0.23 mg/dL
same,TOTAL PROTEIN,[1],5.68 G/DL
same,URIC ACID,[1],1.75 mg/dL
same,ABSOLUTE BASOPHIL,[2],0 CELLS/uL
same,ABSOLUTE EOSINOPHIL,[2],58.67 CELLS/uL
same,ABSOLUTE LYMPHOCYTE,[2],15950.83 CELLS/uL
same,ABSOLUTE MONOCYTE,[2],172.5 CELLS/uL
same,ABSOLUTE SEGMENTED NEUTROPHIL,[2],2551.33 CELLS/uL
same,BASOPHIL,[2],0%
same,EOSINOPHIL,[2],0.33%
same,ERYTHROCYTE COUNT,[2],5.5 x10E6/uL
same,HEMATOCRIT,[2],34.05%
same,HEMOGLOBIN,[2],13.42 G/DL
same,LEUKOCYTE COUNT,[2],18.73 x10E3/uL
same,LYMPHOCYTE,[2],84.5%
same,MEAN CORPUSCULAR HEMOGLOBIN,[2],24.42 pg
same,MEAN CORPUSCULAR HEMOGLOBIN CONCENTRATION,[2],39.42 G/DL
same,MEAN CORPUSCULAR VOLUME,[2],61.97 fL
same,MONOCYTE,[2],1%
same,NEUTROPHIL,[2],14.17%
same,NUCLEATED RED BLOOD CELLS,[2],0.33 /100WBC
same,PLATELET COUNT,[2],1143.17 x10E3/uL
same,ALANINE AMINOTRANSFERASE,[2],57 u/L
same,ALBUMIN,[2],4.17 G/DL
same,ALKALINE PHOSPHATASE,[2],347.33 u/L
same,ASPARTATE AMINOTRANSFERASE,[2],93.67 u/L
same,BLOOD UREA NITROGEN,[2],15.67 mg/dL
same,CARBON DIOXIDE,[2],27.17 mmol/L
same,CHLORIDE,[2],104.33 MEQ/L
same,CHOLESTEROL,[2],69.5 mg/dL
same,CREATINE PHOSPHOKINASE,[2],317.17 u/L
same,CREATININE,[2],0.2 mg/dL
same,GLUCOSE,[2],162.33 mg/dL
same,LACTATE DEHYDROGENASE,[2],408.67 u/L
same,LIPASE,[2],10.17 u/L
same,PHOSPHORUS,[2],11.08 mg/dL
same,POTASSIUM,[2],6.36 MEQ/L
same,SODIUM,[2],146.07 MEQ/L
same,TOTAL BILIRUBIN,[2],0.22 mg/dL
same,TOTAL PROTEIN,[2],5.92 G/DL
same,URIC ACID,[2],1.47 mg/dL
same,ABSOLUTE BASOPHIL,[3],0 CELLS/uL
same,ABSOLUTE EOSINOPHIL,[3],56.67 CELLS/uL
same,ABSOLUTE LYMPHOCYTE,[3],16234.67 CELLS/uL
same,ABSOLUTE MONOCYTE,[3],197 CELLS/uL
same,ABSOLUTE SEGMENTED NEUTROPHIL,[3],1911.67 CELLS/uL
same,BASOPHIL,[3],0%
same,EOSINOPHIL,[3],0.33%
same,ERYTHROCYTE COUNT,[3],5.37 x10E6/uL
same,HEMATOCRIT,[3],33.67%
same,HEMOGLOBIN,[3],13.43 G/DL
same,LEUKOCYTE COUNT,[3],18.4 x10E3/uL
same,LYMPHOCYTE,[3],88.33%
same,MEAN CORPUSCULAR HEMOGLOBIN,[3],25 pg
same,MEAN CORPUSCULAR HEMOGLOBIN CONCENTRATION,[3],39.93 G/DL
same,MEAN CORPUSCULAR VOLUME,[3],62.73 fL
same,MONOCYTE,[3],1%
same,NEUTROPHIL,[3],10.33%
same,NUCLEATED RED BLOOD CELLS,[3],0 /100WBC
same,PLATELET COUNT,[3],1217 x10E3/uL
same,ALANINE AMINOTRANSFERASE,[3],68.67 u/L
same,ALBUMIN,[3],4.23 G/DL
same,ALKALINE PHOSPHATASE,[3],369.67 u/L
same,ASPARTATE AMINOTRANSFERASE,[3],101.67 u/L
same,BLOOD UREA NITROGEN,[3],14.67 mg/dL
same,CARBON DIOXIDE,[3],31 mmol/L
same,CHLORIDE,[3],100.67 MEQ/L
same,CHOLESTEROL,[3],76.33 mg/dL
same,CREATINE PHOSPHOKINASE,[3],371.33 u/L
same,CREATININE,[3],0.22 mg/dL
same,GLUCOSE,[3],142.67 mg/dL
same,LACTATE DEHYDROGENASE,[3],561.67 u/L
same,LIPASE,[3],10.33 u/L
same,PHOSPHORUS,[3],11.3 mg/dL
same,POTASSIUM,[3],6.59 MEQ/L
same,SODIUM,[3],143.83 MEQ/L
same,TOTAL BILIRUBIN,[3],0.23 mg/dL
same,TOTAL PROTEIN,[3],5.8 G/DL
same,URIC ACID,[3],1.7 mg/dL

# — ChEMBL document CHEMBL3885881, “DrugMatrix”
